Consider 5 molecules from patent US7615542B2, “Dioxolane thymine and combinations for use against 3TC/AZT resistant strains of HIV” (priority 2002, dated 2009).

Test [1] deals with HIV-1 isolate LAI M184V. Kind of test: Anti-HIV efficacy in PBMC, isolate LAI M184V. The format is cell-based. The settings on record: for Phenotype for LAI M184V: resistance phenotype comparison, Table 5. As to the method: (§1) The following Tables 2 and 3, set forth below, describe the HIV resistant strains genotypically (Table 2) and phenotypically (Table 3) which were used in the experiments to test activity.
(§2) Each of the three test compounds were tested for efficacy against the various strains of HIV-1. Anti-HIV efficacy was evaluated in PBMC, reverse transcriptase activity was tested in a microtiter plate-based reverse transciptase assay (Buckeit, et al., AIDS Research and Human Retroviruses, 7:295-302, 1991), MTS staining was used for determining cell viability.
(§3) The compounds were also evaluated in a parallel assay for cytotoxicity in uninfected PBM cells.

Test [2] relates to HIV-1 isolate 488-101. Kind of test: microbe, parasite or virus in culture. The settings on record: for IC50: Human immunodeficiency virus 1, PBMC, isolate 488-101 (post-treatment), read-out: Drug (IC50); for Phenotype for 488-101: resistance phenotype comparison, Table 5. The format is cell-based. As to the method: as §1, §2, §3
The subject of test [3] is HIV-1 isolate 5705-0. The test is described as follows: Anti-HIV efficacy in PBMC, isolate 5705-0. The settings on record: for IC50: Human immunodeficiency virus 1, PBMC, isolate 5705-0 (pre-treatment), read-out: Drug (IC50). The format is cell-based. The method, then: as §1
(§4) Each of the three test compounds were tested for efficacy against the various strains of HIV-1. Anti-HIV efficacy was evaluated in PBMC, reverse transcriptase activity was tested in a microtiter plate-based reverse transciptase assay (Buckeit, et al., AIDS Research and Human Retroviruses, 7:295-302, 1991), MTS staining was used for determining cell viability. […] Table 5 presents a resistance phenotype comparison for compounds of the present invention versus the compounds 3TC and AZT.
as §3

Test [4] has as its system HIV-1 isolate G910-6. The test is described as follows: Anti-HIV efficacy in PBMC, isolate G910-6. The conditions noted are these: for IC50: Human immunodeficiency virus 1, PBMC, isolate G910-6 (post-treatment), read-out: Drug (IC50); for Phenotype for G910-6: resistance phenotype comparison, Table 5. The format is cell-based. The method, then:
as §1, §2, §3

Test [5] concerns HIV-1 isolate 5705-72. Kind of test: Anti-HIV efficacy in PBMC, isolate 5705-72. The format is cell-based. The conditions noted are these: for IC50: Human immunodeficiency virus 1, PBMC, isolate 5705-72 (post-treatment), read-out: Drug (IC50). As to the method:
as §1, §2, §3

Test [6] has as its system HIV-1 isolate 488-0. The test is described as follows: Anti-HIV efficacy in PBMC, isolate 488-0. The settings on record: for IC50: Human immunodeficiency virus 1, PBMC, isolate 488-0 (pre-treatment), read-out: Drug (IC50). The format is cell-based. As to the method: as §1, §4, §3
Test [7] has as its system HIV-1 isolate LAI. The test is described as follows: Anti-HIV efficacy in PBMC, isolate LAI. The format is cell-based. The conditions noted are these: for IC50: Human immunodeficiency virus 1, PBMC, read-out: Drug (IC50). As to the method: as §1, §4, §3
Test [8] concerns HIV-1 isolate H112-2. Kind of test: Anti-HIV efficacy in PBMC, isolate H112-2. The format is cell-based. The conditions noted are these: for IC50: Human immunodeficiency virus 1, PBMC, isolate H112-2 (pre-treatment), read-out: Drug (IC50). The method, then: as §1, §4, §3
The subject of test [9] is panel of HIV-1 3TC/AZT drug sensitive/resistant matched pair virus isolates. Kind of test: Standardized PBMC cell-based anti-HIV assay, matched pair panel. The conditions noted are these: AZT and/or 3TC resistant isolates. The method, then: as §2, §3
In test [10] the test system is mutations 65R, 74V, 184V, and 115F in the RT gene. The conditions noted are these: mutants harboring 2 or 3 of these mutations; cited from earlier work.

The structures appear in SMILES notation.

For orientation: IC50 means the concentration at which inhibition is half-maximal. As for `Nc1ccn([C@@H]2CS[C@H](CO)O2)c(=O)n1` [3TC, Lamivudine], the IC50 in [1] (Human immunodeficiency virus 1, PBMC, isolate LAI-M184V, read-out: Drug (IC50)) was more than 50000 nM; in [2] it was 40600 nM; in [3] it was 4 to 9 nM; in test [4] it was 320 nM; in test [5] it was more than 50000 nM; in test [6], 30 to 47 nM. The IC50 was found to be 10 nM in [7] and 170 nM in test [8]. In [2], the “Phenotype for 488-101” value was “Resistant (>5 fold resistance, Resistant)”. Further, the “Phenotype for G910-6” value in test [4] is given as “Sensitive (<5 fold resistance, Sensitive)”.
As for `Cc1cn([C@H]2C[C@H](N=[N+]=[N-])[C@@H](CO)O2)c(=O)[nH]c1=O` [AZT, 3′-Azido-3′-deoxythymidine], the Phenotype entry in test [1] (isolate LAI-M184V, Table 3) is recorded as “Sensitive”; in test [2] (isolate 488-101, Table 3), “Resistant”; in test [3] (isolate 5705-0, Table 3), “Sensitive”; in test [4] (isolate G910-6, Table 3), “Resistant”; in [6] (isolate 488-0, Table 3), “Sensitive”; in [7] (Table 3), “Sensitive”. The Phenotype entry in [8] (isolate H112-2, Table 3) is “Sensitive”. Besides, the “Phenotype for LAI M184V” value in test [1] is “Sensitive (<5 fold resistance, Sensitive)”. Further, the IC50 in [2] is 80 nM; in test [3] it was 3 to 8 nM; in test [4] it was 620 nM; in test [5] it was 30 nM; in test [6] it was 0.3 to 0.6 nM; in test [7], 20 nM. For the same molecule, the IC50 in test [8] turned out to be 10 nM. For the same molecule, the “Phenotype for G910-6” value in test [4] was “Resistant (>5 fold resistance, Resistant)”.
Regarding `Nc1nc(N)c2ncn(C3COC(CO)O3)c2n1` [DAPD, beta-D-9-(5-hydroxymethyl-dioxolanyl-2-yl)-2,4-diamino-purine], the “Phenotype for LAI M184V” value in [1] was “Sensitive (<5 fold resistance, Sensitive)”. Besides, the “Phenotype for 488-101” value in [2] is “Sensitive (<5 fold resistance, Sensitive)”. Besides, the “Phenotype for G910-6” value in [4] is given as “Sensitive (<5 fold resistance, Sensitive)”. In addition, the Resistance phenotype result in [5] (resistance phenotype comparison, Table 5) is “Resistant (>5 fold resistance, Resistant)”. Also, the “Cross-resistance / resistance profile” value in [9] is “resistance profile similar to AZT”.
In the case of `Nc1nc2c(ncn2[C@H]2CO[C@@H](CO)O2)c(=O)[nH]1` [DXG, beta-D-9-(5-hydroxymethyl-dioxolanyl-2-yl)guanine], the “Phenotype for LAI M184V” value in test [1] was “Resistant (>5 fold resistance, Resistant)”. Besides, the “Phenotype for 488-101” value in [2] is “Sensitive (<5 fold resistance, Sensitive)”. Moreover, in test [4], the “Phenotype for G910-6” value is listed as “Sensitive (<5 fold resistance, Sensitive)”. Further, in [9], the “Cross-resistance / resistance profile” value is given as “resistance profile similar to that of 3TC”.
Consider `Nc1nc(NC2CC2)c2ncn([C@H]3C=C[C@@H](CO)C3)c2n1` [abacavir, Abacavir], for which the “resistance to the drug” value in test [10] is listed as “approximately 10 fold”.
